Assay results reported in US4837221A, “Methods of treating tumors susceptible to necrosis” (Efamol Ltd., priority 1984, dated 1989).
“And” between values parts separate entries of the source, which are not always exact repeats. Equal entries are not always repeated. “Also recorded” adds a separate entry of the source.

Assays:
[1] = tested on: transplantable mouse tumour originating in plasma cells; assay: Depth of tumour necrosis after photosensitising drug and illumination (10J/cm^2) in mice; assay type: in vivo; conditions: for Depths of tumour necrosis: 10J/cm^2 at 660nm, individual values; for effectiveness in DMSO versus alkali (in words): DMSO compared with alkali (NaOH); for effectiveness as photosensitiser for tumour tissue (in words): mouse assay
Description: The photosensitising drug is given intravenously in aqueous medium or intraperitoneally in DMSO, the tumour exposed to light at the appropriate wavelength and the depth of tumour necrosis measured. […] Results are shown in graph. The relative potency is determined by comparing amounts of drugs required to produce equal effects.
A preliminary comparison was made. […] The light dose was 10J/cm^2 at 660nm.

[2] = tested on: cranium (brain) of mice; assay: Cerebral photosensitisation: deaths within 48 hours after white light to the cranium; assay type: in vivo, mouse; conditions: 0.033 μM/kg i.v., 24 hours later 20J/cm^2 white light to cranium
Description: Deaths within 48 hours (due to acute cerebral oedema) were: […]

[3] = tested on: brain vascular lining; assay: Cerebral photosensitisation: Evans blue in the brain after white light to the cranium; assay type: in vivo, mouse; conditions: 0.033 μM/kg i.v., 20J/cm^2 white light; dye 4 hours after exposure, measured 1 hour later; groups of 5 mice
Description: Normally, very little is found, and this is largely dye still circulating in the blood 1 hour after injection, and not in the brain substance itself. An increase is produced by agents that damage the brain vascular lining, allowing dye to enter the brain substance.

[4] = tested on: depilated skin; assay: Skin photosensitisation: increase in skin thickness after illumination; assay type: in vivo, mouse
Description: The increase in skin thickness was measured 4 hours after illumination.

[5] = Solubility; assay type: physicochemical
[6] = tested on: transplantable mouse tumour originating in plasma cells; assay: Depth of tumour necrosis after photosensitising drug and illumination (10J/cm^2) in mice; assay type: in vivo; conditions: for Necrosis (after 10J/cm^2), depth: ± S.E.M.

Oc1ccc(-c2c3nc(c(-c4ccc(O)cc4)c4ccc([nH]4)c(-c4ccc(O)cc4)c4nc(c(-c5ccc(O)cc5)c5ccc2[nH]5)C=C4)C=C3)cc1 [HK7, 5,10,15,20-tetra (4-hydroxyphenyl) porphyrin]
Depths of tumour necrosis ([1]; 33 μM/kg, NaOH-DMSO): 0.5 mm and 1.5 mm and 4.5 mm
Depths of tumour necrosis ([1]; 67 μM/kg, DMSO): 4 mm and 5 mm and 6 mm
effectiveness in DMSO versus alkali (in words) [1]: rather more effective administered in DMSO than in alkali
effectiveness as photosensitiser for tumour tissue (in words) [1]: more effective photosensitiser for tumour tissue in animal assay than is HpD
Deaths within 48 hours (due to acute cerebral oedema) [2]: 0/5
amount of Evans blue in the brain [3]: 23.6 ± 3.65 μg dye/brain
skin photosensitisation, by 1 week ([4]; 1 week, equimolar doses, 10J/cm^2, HK7 vs HpD): little difference
skin photosensitisation, by 2 weeks ([4]; 2 weeks, maximum dose, 10J/cm^2): no longer sensitises to this dose of light
skin photosensitisation, 1 day after porphyrin injection ([4]; 1 day, equimolar doses, 10J/cm^2 (625nm HpD, 656nm HK7)): more potent skin sensitiser than HpD
skin photosensitisation, potency and persistence ([4]; HK7 compared with HpD, overall): less persistant than that caused by HpD; also recorded: more potent skin photosensitiser than HpD, but that the effect is more transient
solubility in neutral aqueous media [5]: relatively insoluble in neutral aqueous media
Necrosis (after 10J/cm^2), depth ([6]; 6.25 μM/kg, DMSO, 656 nm): 1.17 ± 0.31 mm and 0.85 ± 0.38 mm
Necrosis (after 10J/cm^2), depth ([6]; 12.5 μM/kg, DMSO, 656 nm): 2.86 ± 0.26 mm and 2.50 ± 0.52 mm
Necrosis (after 10J/cm^2), depth ([6]; 12.5 μM/kg, NaOH, 654 nm): 2.40 ± 0.10 mm
Necrosis (after 10J/cm^2), depth ([6]; 25 μM/kg, DMSO, 656 nm): 3.54 ± 0.48 mm and 2.63 ± 0.56 mm
Necrosis (after 10J/cm^2), depth ([6]; 25 μM/kg, NaOH, 654 nm): 3.64 ± 0.39 mm
Necrosis (after 10J/cm^2), depth ([6]; 25 μM/kg, NaOH, 669 nm): 2.75 ± 0.25 mm and 2.38 ± 0.24 mm
Necrosis (after 10J/cm^2), depth ([6]; 50 μM/kg, DMSO, 656 nm): 5.06 ± 0.48 mm
Necrosis (after 10J/cm^2), depth ([6]; 50 μM/kg, NaOH, 669 nm): 3.32 ± 0.63 mm and 3.25 ± 0.37 mm
effectiveness in tumour necrosis (in words) ([6]; 6.25 μm/kg): reasonably effective
tumour sensitisation at the dose of the cerebral test (in words) ([6]; 24 hours after dose, see graph): substantial tumour sensitisation
amount of drug required to produce equal effect (HK7 vs HpD) ([6]; i.v., 10J/cm^2, 630nm HpD, 658nm HK7): ~0.0125 µM/kg

Oc1ccc(-c2c3nc(c(-c4ccc(O)cc4)c4ccc([nH]4)c(-c4ccc(O)cc4)c4nc(c(-c5ccc(O)cc5)c5ccc2[nH]5)C=C4)C=C3)cc1 [HK7.4EtOH]
Depths of tumour necrosis ([1]; 33 μM/kg, NaOH-DMSO): 0.25 mm and 0.5 mm and 0.75 mm and 2 mm
Depths of tumour necrosis ([1]; 67 μM/kg, DMSO): 3.75 mm and 4 mm (2×) and 5 mm

Oc1ccc(-c2c3nc(c(-c4ccc(O)cc4)c4ccc([nH]4)c(-c4ccc(O)cc4)c4nc(c(-c5ccc(O)cc5)c5ccc2[nH]5)C=C4)C=C3)cc1 [K-HK7]
Necrosis (after 10J/cm^2), depth ([6]; 12.5 μM/kg, DMSO, 656 nm): 2.50 ± 0.44 mm
Necrosis (after 10J/cm^2), depth ([6]; 25 μM/kg, DMSO, 656 nm): 3.32 ± 0.59 mm
Necrosis (after 10J/cm^2), depth ([6]; 50 μM/kg, NaOH, 654 nm): 5.06 ± 0.12 mm

Oc1ccc(-c2c3nc(c(-c4ccc(O)cc4)c4ccc([nH]4)c(-c4ccc(O)cc4)c4nc(c(-c5ccc(O)cc5)c5ccc2[nH]5)C=C4)C=C3)cc1 [Li-HK7]
Necrosis (after 10J/cm^2), depth ([6]; 25 μM/kg, DMSO, 656 nm): 3.31 ± 0.40 mm and 3.00 ± 0.72 mm and 3.00 ± 0.51 mm
Necrosis (after 10J/cm^2), depth ([6]; 50 μM/kg, DMSO, 656 nm): 2.46 ± 0.38 mm and 3.50 ± 0.41 mm
necrosis depth ([6]; 12.5 μm/kg): below 1.0 mm

Oc1ccc(-c2c3nc(c(-c4ccc(O)cc4)c4ccc([nH]4)c(-c4ccc(O)cc4)c4nc(c(-c5ccc(O)cc5)c5ccc2[nH]5)C=C4)C=C3)cc1 [Na-HK7]
Necrosis (after 10J/cm^2), depth ([6]; 25 μM/kg, DMSO, 656 nm): 2.28 ± 0.47 mm
Necrosis (after 10J/cm^2), depth ([6]; 50 μM/kg, DMSO, 656 nm): 2.80 ± 0.12 mm and 3.79 ± 0.29 mm
Necrosis (after 10J/cm^2), depth ([6]; 50 μM/kg, NaOH, 664 nm): 3.15 ± 0.83 mm
necrosis depth ([6]; 12.5 μm/kg): below 1.0 mm

Oc1cccc(-c2c3nc(c(-c4cccc(O)c4)c4ccc([nH]4)c(-c4cccc(O)c4)c4nc(c(-c5cccc(O)c5)c5ccc2[nH]5)C=C4)C=C3)c1 [meta-HK7]
effectiveness in DMSO versus alkali (in words) [1]: equally effective in both
effectiveness as photosensitiser for tumour tissue (in words) [1]: most active compound found
Necrosis (after 10J/cm^2), depth ([6]; 1.56 μM/kg, DMSO, 648 nm): 0.65 ± 0.22 mm
Necrosis (after 10J/cm^2), depth ([6]; 6.25 μM/kg, DMSO, 648 nm): 3.53 ± 0.49 mm and 2.88 ± 0.9 mm and 3.86 ± 0.18 mm
Necrosis (after 10J/cm^2), depth ([6]; 6.25 μM/kg, NaOH, 648 nm): 3.78 ± 0.36 mm and 3.64 ± 0.34 mm
Necrosis (after 10J/cm^2), depth ([6]; 12.5 μM/kg, DMSO, 648 nm): 4.44 ± 0.35 mm and 4.5 ± 0.5 mm
Necrosis (after 10J/cm^2), depth ([6]; 12.5 μM/kg, NaOH, 648 nm): 3.25 ± 0.33 mm
Necrosis (after 10J/cm^2), depth ([6]; 25.0 μM/kg, DMSO, 648 nm): 5.37 ± 0.55 mm
Necrosis (after 10J/cm^2), depth ([6]; 50.0 μM/kg, DMSO, 648 nm): 4.63 ± 0.64 mm
effectiveness in tumour necrosis (in words) ([6]; 1.56 μm/kg): some effect
effectiveness in tumour necrosis (in words) ([6]; 3.12 μm/kg): effective

Oc1ccccc1-c1c2nc(c(-c3ccccc3O)c3ccc([nH]3)c(-c3ccccc3O)c3nc(c(-c4ccccc4O)c4ccc1[nH]4)C=C3)C=C2 [ortho-HK7, 5,10,15,20-TETRA(o-HYDROXYPHENYL) PORPHYRIN]
Necrosis (after 10J/cm^2), depth ([6]; 6.25 μM/kg, DMSO, 648 nm): 2.45 ± 0.28 mm
Necrosis (after 10J/cm^2), depth ([6]; 12.5 μM/kg, DMSO, 648 nm): 3.03 ± 0.29 mm
Necrosis (after 10J/cm^2), depth ([6]; 25.0 μM/kg, DMSO, 648 nm): 4.21 ± 0.32 mm and 3.21 ± 0.56 mm
Necrosis (after 10J/cm^2), depth ([6]; 50.0 μM/kg, DMSO, 648 nm): 4.25 ± 0.50 mm

O=S(=O)(O)c1ccc(-c2c3nc(c(-c4ccc(S(=O)(=O)O)cc4)c4ccc([nH]4)c(-c4ccc(S(=O)(=O)O)cc4)c4nc(c(-c5ccc(S(=O)(=O)O)cc5)c5ccc2[nH]5)C=C4)C=C3)cc1 [tetra-(p-hydroxysulphonyl phenyl) porphyrin, reference compound]
necrosis depth ([6]; molar equivalent dose to HpD 67 μmol/kg, saline, 550 nm): 0.30±0.11 mm
